Entries after “also recorded” stand apart in the source; their conditions may differ.
Experiments:
Polyposis nasi et sinuum = experiment: Cell vitality of polyp single-cell suspensions in culture; type: cell-based, Mensch; settings: 1mM Cineol versus standard medium, culture over 288 Stunden; effect after 96 bis 144 Stunden; polyps of 5 patients
Procedure: Proben von Nasenpolypen wurden in PBS-Puffer gewaschen und in sterilem serumfreiem "High Glucose Dulbecco's Modified Eagle Medium" (PAA, Pasching, Österreich) mit einer Skalpellklinge vorsichtig in kleine Stücke zerkleinert, wobei das Medium 1 % L-Glutamin, 1 % Natriumpyruvat, 1 % nichtessentielle Aminosäuren, 2 % Amphotericin B, 2 % Streptomycin und 2 % Penicillin, ergänzt mit 10 % FCS, und 25 mM HEPES Puffer, enthielt (alle von PAA, Pasching, Österreich). Danach wurden die Gewebeproben durch eine enzymatische Behandlung und Waschschritte mit Collagenase Typ II (31,5 mg/ml, GIBCO, Eggenstein, Deutschland) und Hyaluronidase (3,99 mg/ml, Sigma, München, Deutschland) in einem ersten Schritt und mit Dispase (33,4 mg/ml, Sigma, München, Deutschland) in einem zweiten Schritt jeweils unter Schütteln bei 37 °C für 120 Minuten enzymatisch verdaut. Zwischen den enzymatischen Behandlungen und den Waschschritten wurden die Zellen zentrifugiert. Die resultierenden Zellsuspensionen wurden in PBS (PAA, Pasching, Österreich), enthaltend 2 % BSA, gewaschen und jeweils durch einen 70 µm und einen 60 µm Nylon-Zellfilter (Falcon, Becton Dickinson Labware, Heidelberg, Deutschland) filtriert.
Erste Vorversuche zum Einfluss von Cineol auf die Progression von Polyposis nasi et sinuum wurden durchgeführt. […]

[1] = test system: Transkriptionsfaktors NF-kB; experiment: NF-kB transcription factor activity in polyp material; type: cell-based, Mensch; settings: in Polyposis nasi et sinuum; TNF-alpha as positive control
Source text: Da auch für Polyposis nasi et sinuum postuliert wird, dass Entzündungsparameter einen entscheidenden Einfluss auf die Progression dieser Erkrankung haben, untersuchte die Anmelderin den Einfluss von Cineol auf die Aktivität des Transkriptionsfaktors Nuclear Factor kappa B (NF-kB) und auf die Aktivität eines breiten Spektrums verschiedener Phosphokinasen, um so die molekularen Angriffspunkte von Cineol in verschiedenen Biosynthesewegen der Zelle hinsichtlich des Polyposis nasi et sinuum-"Mikromilieus" zu identifizieren.
Bei den Messergebnissen wurde TNF-alpha (tumor necrosis factor-alpha) als etablierter Stimulus der NF-kB Aktivität und somit als interne Positivkontrolle verwendet.

Nasenpolypenzellen = experiment: Proliferation of nasal polyp cells (xCELLigence Real Time Cell Analyzer; figure legend says MTT test); type: cell-based, Mensch; settings: 100 µM 1,8-Cineol, after 144 Stunden; two subjects I and II (Figur 2A)
Source text: Material und Methoden: Die Anmelderin hat Gewebeproben aus Nasenpolypen und unteren Nasenmuscheln von Patienten mit CRSwNP (chronischer Rhinosinusitis mit Nasenpolypen) und aus unteren Nasenmuscheln von Probanden ohne chronische Sinusitis (gesunde Schleimhaut) auf Basis von immunohistochemischen Methoden und Immunoblot-Verfahren untersucht. Die zelluläre Proliferation und Migration wurden unter Einsatz des xCELLigence Real Time Cell Analyzer untersucht.
Proben von Nasenpolypen wurden in PBS-Puffer gewaschen und in sterilem serumfreiem "High Glucose Dulbecco's Modified Eagle Medium" (PAA, Pasching, Österreich) mit einer Skalpellklinge vorsichtig in kleine Stücke zerkleinert, wobei das Medium 1 % L-Glutamin, 1 % Natriumpyruvat, 1 % nichtessentielle Aminosäuren, 2 % Amphotericin B, 2 % Streptomycin und 2 % Penicillin, ergänzt mit 10 % FCS, und 25 mM HEPES Puffer, enthielt (alle von PAA, Pasching, Österreich). […]
Die Zellproliferation wurde mittels eines quantitativen kolorimetrischen 3-(4,5-Dimethylthiazol 2-yl)-2,5-diphenyltetrazoliumbromid-basierten (MTT) Zelltests bestimmt. […]

[2] = test system: permanente Zelllinien maligner Kopf-Hals-Tumoren; experiment: Cell migration test (xCELLigence); type: cell-based; settings: 2 mM
Source text: Um den Einfluss von Cineol auf die zelluläre Migrations-Aktivität zu untersuchen, wurden Migrations-CIM-Platten 16 (Roche, Mannheim, Deutschland), bei welchen es sich um ein durch eine poröse Membran getrenntes 2-Kammer-System handelt, entsprechend der Bedienungsanleitung des Herstellers verwendet (Roche Diagnostics). Die Zellen wandern dabei von der oberen Kammer durch die Membran und haften an den elektronischen Sensoren an der Unterseite der Membran, so dass ein Anstieg der Impedanz resultiert. Die Veränderungen werden automatisch und kontinuierlich durch das RTCA-DP-Instrument aufgezeichnet, und die Zellmigrations-Aktivität kann durch das Zell-Index-Profil überwacht werden. Vor dem Befüllen der Wells mit Zellen (60.000 Zellen/Well) wurde die Unterseite der Wells der oberen Kammer der CIM-Platte 16 mit 30 µl Collagen I ([…], Sigma, Deisenhofen, Deutschland) beschichtet. Jede Behandlungsbedingung wurde in dreifacher Ausführung gemessen.
Neben der zellulären Vitalität und Progression sowie dem Einfluss auf Apoptose und Zellzyklus hat die Anmelderin auch den Einfluss von Cineol auf das zelluläre Migrationsverhalten untersucht. […]

[3] = test system: proinflamatorischer Zytokine; settings: inhalation; cited from earlier work

## CC12CCC(CC1)C(C)(C)O2 [1,8-Cineol, 1,3,3-Trimethyl-2-oxabicyclo[2.2.2]octan]
Polyposis nasi et sinuum
  Zellvitalität: massiven Abfall
[1]
  Aktivität des Transkriptionsfaktors NF-kB: keinen inhibierenden Einfluss hierauf hat, sondern vielmehr leicht aktivierend
Nasenpolypenzellen
  Proliferation von Nasenpolypenzellen: stark verringerte Proliferation; also recorded: stark abnehmende Proliferation
[2]
  zelluläre Migrationsaktivität: leichten Einfluss
[3]
  proinflamatorische Zytokine: deutlichen Reduktion

— patent EP3325012B1, “CINEOLE-CONTAINING COMPOSITION FOR TREATING NOSE POLYPS” (Maria Clementine Martin Klosterfrau Vertriebsgesellschaft …, priority 2015, dated 2017)
